Source: US4931463A, “Oxetanones” (Hoffmann-La Roche Inc., priority 1987, dated 1990)
Read-outs that look alike come from different tables or passages of the source.

Key:
[1] = target: T1, pig pancreas lipase (Sus scrofa, UniProt P00591); assay: Inhibition of pancreas lipase, titrimetric registration of oleic acid liberated in the cleavage of triolein; format: biochemical
T1 sequence (P00591 1-450): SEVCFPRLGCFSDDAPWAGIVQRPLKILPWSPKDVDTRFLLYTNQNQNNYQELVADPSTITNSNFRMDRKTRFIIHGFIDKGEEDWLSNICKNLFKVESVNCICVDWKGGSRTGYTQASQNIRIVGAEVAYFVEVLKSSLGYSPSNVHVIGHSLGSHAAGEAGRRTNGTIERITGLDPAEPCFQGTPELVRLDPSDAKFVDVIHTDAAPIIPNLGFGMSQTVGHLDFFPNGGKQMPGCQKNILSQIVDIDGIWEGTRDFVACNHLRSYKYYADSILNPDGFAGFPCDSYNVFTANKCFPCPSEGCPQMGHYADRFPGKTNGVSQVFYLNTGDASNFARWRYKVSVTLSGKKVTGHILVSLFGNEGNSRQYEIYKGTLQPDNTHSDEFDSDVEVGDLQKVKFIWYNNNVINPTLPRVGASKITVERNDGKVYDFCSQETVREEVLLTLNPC
Procedure: To an emulsion which contains 1 mM of taurodeoxycholate, 9 mM of taurocholeate, 0.1 mM of cholesterol, 1 mM of egg lecithin, 15 mg/ml of BSA, 2 mM of Tris HCl, 100 mM of sodium chloride, 1 mM of calcium chloride and triolein as the substrate was added the compound of formula I dissolved in ethanol or dimethyl sulfoxide (10% of the emulsion volume) and the reaction was started by the addition of 100 μg (175 U) of pig pancreas lipase. The pH was held at 8 during the reaction by the addition of sodium hydroxide solution. The IC50 was calculated from the consumption of sodium hydroxide solution determined during 10 minutes. The IC50 was that concentration at which the lipase activity was inhibited to half of the maximum.

[2] = tested on: mice; assay: Acute toxicity after single oral administration to mice; format: in vivo
[3] = pig pancreas lipase 100 μg (175 U), triolein substrate, pH 8, 10 minutes, concentration at which lipase activity was inhibited to half of the maximum, read-out: IC50 (converted)

CCCCC/C=C\C/C=C\CCCCCCC[C@@H](C[C@@H]1OC(=O)[C@H]1CC)OC(=O)[C@H](CC(C)C)NC=O [Example 2, 21]
IC50 [1, 3]: 0.0385 µM

CCCCCCCCCCC[C@H](O)C[C@@H]1OC(=O)[C@H]1CCCCCC (relative stereo) [Example 9 F.2., rac-trans-3-hexyl-4-(2-hydroxytridecyl)-2-oxetanone(2S,3S,4S:2R,3R,4R)]
IC50 [1, 3]: 240 µM

CC[C@@H]1C(=O)O[C@H]1C[C@@H](OC(=O)[C@H](CC(C)C)NC=O)c1ccc(Oc2ccccc2)cc1 [Example 2, 25a, N-formyl-(S)-leucine (R)-α-[[(2S,3S)-3-ethyl-4-oxo-2-oxetanyl]methyl]-p-phenoxybenzyl ester]
IC50 [1, 3]: 0.022 µM

C=CCC[C@@H](C[C@@H]1OC(=O)[C@H]1CCCCCCCCCC)OC(=O)[C@H](CC(C)C)NC=O [Example 2, 34, N-formyl-L-leucine (S)-1-[[(2S,3S)-3-decyl-4-oxo-2-oxetanyl]methyl]-4-pentenyl ester]
IC50 [1]: 0.288 µM | Toxicity (dose of the compound at which the animal survives) [2]: 4000 mg/kg p.o.

CCCCCC[C@@H]1C(=O)O[C@H]1CC(CCCC)OC(=O)[C@H](CC(C)C)NC=O (mixture of isomers) [Example 5, N-formyl-L-leucine 1-[(trans-3-hexyl-4-oxo-2-oxetanyl]-methyl]pentyl ester]
IC50 [1, 3]: 0.503 µM

CCCCCCCCCCCCCCCCC[C@@H](C[C@@H]1OC(=O)[C@H]1CC)OC(=O)[C@H](CC(C)C)NC=O [Example 4, 1, N-formyl-(S)-leucine (S)-1[[(2S,3S)-3-ethyl-4-oxo-2-oxetanyl]methyl]octadecyl ester]
IC50 [1, 3]: 0.21 µM

CCCCCCCCCCCC(C[C@@H]1OC(=O)[C@H]1CCCCCC)OC(=O)[C@@H](N)CC(C)C (relative stereo) [Example 7, leucine 1-[(trans-3-hexyl-4-oxo-2-oxetanyl)methyl]dodecyl ester]
IC50 [1, 3]: 32.1 µM

CCCCCC[C@@H]1C(=O)O[C@H]1C[C@H](CCCC)OC(=O)[C@H](Cc1ccccc1)NC=O [Example 6, 2, N-formyl-L-phenylalanine (S)-1-[[(2S,3S)-3-hexyl-4-oxo-2-oxetanyl]methyl]-4-pentyl ester]
IC50 [1]: 2.32 µM

CCCCCCCCCCCC(C[C@@H]1OC(=O)[C@H]1CC)OC(=O)[C@H](CC(C)C)NC=O (single isomer, unassigned) [Example 2, 13a, N-formyl-L-leucine 1-[(trans-3-ethyl-4-oxo-2-oxetanyl)methyl]dodecyl ester]
IC50 [1, 3]: 0.0159 µM

C=CC[C@@H]1C(=O)O[C@H]1CC(CCCCCCCCCCC)OC(=O)[C@H](CC(C)C)NC=O (mixture of isomers) [Example 2, 14, N-formyl-L-leucine 1-[(trans-3-allyl-4-oxo-2-oxetanyl)methyl]dodecyl ester]
IC50 [1]: 0.0332 µM | Toxicity (dose of the compound at which the animal survives) [2]: 5000 mg/kg p.o.

CCCCCCCC/C=C\CCCCCCC[C@@H](C[C@@H]1OC(=O)[C@H]1CC)OC(=O)[C@H](CC(C)C)NC=O (single isomer, unassigned) [Example 2, 23a]
IC50 [1]: 0.0671 µM | Toxicity (dose of the compound at which the animal survives) [2]: 2000 mg/kg p.o.
